Data reported in patent US9085555B2, “Complement pathway modulators and uses thereof” (priority 2011, dated 2015).
Where a name gives a salt, the structure may show the parent alone. Read-outs that look alike come from different tables or passages of the source.

Target: Factor D (Homo sapiens (Human), UniProt P00746)
Test: biochemical
Format: biochemical

Factor D, sequence (P00746 26-253): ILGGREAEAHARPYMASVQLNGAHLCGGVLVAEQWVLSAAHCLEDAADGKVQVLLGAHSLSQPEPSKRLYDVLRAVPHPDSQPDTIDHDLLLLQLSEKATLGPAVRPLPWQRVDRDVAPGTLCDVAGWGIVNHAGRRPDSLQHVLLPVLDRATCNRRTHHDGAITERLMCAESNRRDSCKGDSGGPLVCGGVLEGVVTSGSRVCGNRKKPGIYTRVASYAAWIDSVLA

| SMILES | IC50 (read-out: IC50) | IC50 |
| --- | --- | --- |
| CN(C)CCN(C)c1cc(Cl)c(F)c(CNC(=O)[C@@H]2C[C@@H](F)CN2C(=O)Nc2cn(C(N)=O)c3ccccc23)c1 [Example 329, (2S,4R)-4-Fluoro-pyrrolidine-1,2-dicarboxylic acid 1-[(1-carbamoyl-1H-indol-3-yl)-amide] 2-{3-chloro-5-[(2-dimethylamino-ethyl)-methyl-amino]-2-fluoro-benzylamide}] | 181 nM |  |
| CC(=O)c1cn(CC(=O)N2[C@@H]3C[C@@H]3C[C@H]2C(=O)NCc2cccc(Cl)c2F)c2ccc(C(=N)N(C)C)cc12 [Example 615, (1R,3S,5R)-2-{2-[3-Acetyl-5-(N,N-dimethyl-carbamimidoyl)-indol-1-yl]-acetyl}-2-aza-bicyclo[3.1.0]hexane-3-carboxylic acid 3-chloro-2-fluoro-benzylamide] | 42 nM |  |
| NC(=O)n1cc(NC(=O)N2[C@@H]3C[C@@H]3C[C@H]2C(=O)Nc2cc(Br)cc(-c3nnn[nH]3)c2)c2ccccc21 [Example 344, (1R,3S,5R)-2-Aza-bicyclo[3.1.0]hexane-2,3-dicarboxylic acid 3-{[3-bromo-5-(1H-tetrazol-5-yl)-phenyl]-amide}2-[(1-carbamoyl-1H-indol-3-yl)-amide]] | 68 nM |  |
| COCCN[C@H]1C[C@@H](C(=O)NCc2cccc(Cl)c2F)N(C(=O)Nc2cn(C(N)=O)c3ccccc23)C1 [Example 426, 2S,4S)-4-(2-Methoxy-ethylamino)-pyrrolidine-1,2-dicarboxylic acid 1-[(1-carbamoyl-1H-indol-3-yl)-amide]2-(3-chloro-2-fluoro-benzylamide] | 436 nM |  |
| CN(C)[C@H]1C[C@@H](C(=O)NCc2cccc(Cl)c2F)N(C(=O)Nc2cn(C(N)=O)c3ccccc23)C1 [Example 427, 2S,4S)-4-Dimethylamino-pyrrolidine-1,2-dicarboxylic acid 1-[(1-carbamoyl-1H-indol-3-yl)-amide]2-(3-chloro-2-fluoro-benzylamide] | 665 nM |  |
| NC(=O)n1cc(NC(=O)N2C[C@@H](N)C[C@H]2C(=O)NCc2ccc(Cl)c(Cl)c2)c2ccccc21 [Example 61, (2S,4S)-4-Amino-pyrrolidine-1,2-dicarboxylic acid 1-[(1-carbamoyl-1H-indol-3-yl)-amide] 2-(3,4-dichloro-benzylamide)] | 7100 nM |  |
| NC(=O)n1cc(NC(=O)N2C[C@@H](N)C[C@H]2C(=O)NCc2cccc(C(F)(F)F)c2)c2ccccc21 [Example 31, (2S,4S)-4-Amino-pyrrolidine-1,2-dicarboxylic acid 1-[(1-carbamoyl-1H-indol-3-yl)-amide] 2-(3-trifluoromethyl-benzylamide)] | 12200 nM |  |
| NC(=O)n1cc(NC(=O)N2C[C@](O)(CO)C[C@H]2C(=O)NCc2cccc(Cl)c2F)c2ccccc21 [Example 202, (2S,4S)-4-Hydroxy-4-hydroxymethyl-pyrrolidine-1,2-dicarboxylic acid 1-[(1-carbamoyl-1H-indol-3-yl)-amide] 2-(3-chloro-2-fluoro-benzylamide)] | 450 nM |  |
| COC(=O)[C@H](CC(C)C)NC(=O)[C@@H]1C[C@H](N)CN1C(=O)Nc1cn(C(N)=O)c2ccccc12 [Example 95, (S)-2-{[(2S,4S)-4-Amino-1-(1-carbamoyl-1H-indol-3-ylcarbamoyl)-pyrrolidine-2-carbonyl]-amino}-4-methyl-pentanoic acid methyl ester] | 1350 nM |  |
| NC[C@@]1(F)C[C@@H](C(=O)NCc2cccc(Cl)c2F)N(C(=O)Nc2cn(C(N)=O)c3ccccc23)C1 [Example 409, 2S,4S)-4-Aminomethyl-4-fluoro-pyrrolidine-1,2-dicarboxylic acid 1-[(1-carbamoyl-1H-indol-3-yl)-amide]2-(3-chloro-2-fluoro-benzylamide] | 25 nM |  |
| NC(=O)n1cc(NC(=O)N2C[C@H]3C[C@H]3[C@H]2C(=O)NCc2cccc(Cl)c2)c2ccccc21 (relative stereo) [Example 167, (1R*,2S*,5S*)-3-Aza-bicyclo[3.1.0]hexane-2,3-dicarboxylic acid 3-[(1-carbamoyl-1H-indol-3-yl)-amide] 2-(3-chloro-benzylamide)] |  | 108 nM |
| CC(=O)c1cn(CC(=O)N2C[C@H](F)[C@@H](N)[C@H]2C(=O)NCc2cccc(Cl)c2F)c2ccccc12 [Example 575, (2S,3S,4S)-1-[2-(3-Acetyl-indol-1-yl)-acetyl]-3-amino-4-fluoro-pyrrolidine-2-carboxylic acid 3-chloro-2-fluoro-benzylamide] | 843 nM |  |
| COCCN(C)Cc1cc(Cl)c(F)c(CNC(=O)[C@@H]2C[C@@H](F)CN2C(=O)Nc2cn(C(N)=O)c3ccccc23)c1 [Example 4, (2S,4R)-4-Fluoro-pyrrolidine-1,2-dicarboxylic acid 1-[(1-carbamoyl-1H-indol-3-yl)-amide] 2-(3-chloro-2-fluoro-5-{[(2-methoxy-ethyl)-methyl-amino]-methyl}-benzylamide)] | 3980 nM |  |
| CC(=O)N[C@H]1[C@@H](C(=O)NCc2cccc(Cl)c2F)N(C(=O)Nc2cn(C(N)=O)c3ccccc23)C[C@@H]1F [Example 206, (2S,3S,4S)-3-Acetylamino-4-fluoro-pyrrolidine-1,2-dicarboxylic acid 1-[(1-carbamoyl-1H-indol-3-yl)-amide] 2-(3-chloro-2-fluoro-benzylamide)] | 187 nM |  |
| NC(=O)n1cc(NC(=O)N2C3CC3C[C@H]2C(=O)NCc2cnc(Cl)s2)c2ccccc21 (stereo partly drawn) [Example 295, (1R,3S,5R)-2-Aza-bicyclo[3.1.0]hexane-2,3-dicarboxylic acid 2-[(1-carbamoyl-1H-indol-3-yl)-amide] 3-[(2-chloro-thiazol-5-ylmethyl)-amide]] | 150 nM |  |
| NC(=O)n1cc(NC(=O)N2C[C@@H](N)C[C@H]2C(=O)NCc2c(F)ccc(Cl)c2F)c2ccccc21 [Example 62, (2S,4S)-4-Amino-pyrrolidine-1,2-dicarboxylic acid 1-[(1-carbamoyl-1H-indol-3-yl)-amide] 2-(3-chloro-2,6-difluoro-benzylamide)] | 85 nM |  |
| CN[C@H]1C[C@@H](C(=O)NCc2cccc(Cl)c2F)N(C(=O)Cn2cc(C(C)=O)c3ccccc32)C1 [Example 608, (2S,4S)-1-[2-(3-Acetyl-indol-1-yl)-acetyl]-4-methylamino-pyrrolidine-2-carboxylic acid 3-chloro-2-fluoro-benzylamide] | 1840 nM |  |
| Cc1cc2c(C(N)=O)nn(CC(=O)N3[C@@H]4C[C@@H]4C[C@H]3C(=O)NCc3cccc(Cl)c3F)c2cn1 [Example 651, 1-{2-[(1R,3S,5R)-3-(3-Chloro-2-fluoro-benzylcarbamoyl)-2-aza-bicyclo[3.1.0]hex-2-yl]-2-oxo-ethyl}-5-methyl-1H-pyrazolo[3,4-c]pyridine-3-carboxylic acid amide] | 21 nM |  |
| CC(=O)c1nn(CC(=O)N2[C@@H]3C[C@@H]3C[C@H]2C(=O)N[C@H](CO)c2cccc(Cl)c2F)c2ncccc12 [Example 677, (1R,3S,5R)-2-[2-(3-Acetyl-pyrazolo[3,4-b]pyridin-1-yl)-acetyl]-2-aza-bicyclo [3.1.0]hexane-3-carboxylic acid [(S)-1-(3-chloro-2-fluoro-phenyl)-2-hydroxy-ethyl]-amide] | 10 nM |  |
| NC(=O)n1cc(CC(=O)N2CC[C@@H](O)[C@H]2C(=O)NCc2cccc(Cl)c2F)c2ccccc21 [Example 444, 3-{2-[(2S,3R)-2-(3-Chloro-2-fluoro-benzylcarbamoyl)-3-hydroxy-pyrrolidin-1-yl]-2-oxo-ethyl}-indole-1-carboxylic acid amide] | 243 nM |  |
| C[C@H]1CC[C@@H](C(=O)Nc2cccc(OC(F)(F)F)c2)N1C(=O)Nc1cn(C(N)=O)c2ccccc12 [Example 337, (2S,5S)-5-Methyl-pyrrolidine-1,2-dicarboxylic acid 1-[(1-carbamoyl-1H-indol-3-yl)-amide]2-[(3-trifluoromethoxy-phenyl)-amide]] | 250 nM |  |
| CO[C@H]1[C@@H](C(=O)Nc2cccc(OC(F)(F)F)c2F)N(C(=O)Cn2nc(C(N)=O)c3ccncc32)C[C@@H]1F [Example 629, 1-{2-[(2S,3S,4S)-4-Fluoro-2-(2-fluoro-3-trifluoromethoxy-phenylcarbamoyl)-3-methoxy-pyrrolidin-1-yl]-2-oxo-ethyl}-1H-pyrazolo[3,4-c]pyridine-3-carboxylic acid amide trifluoroacetate] | 17 nM |  |
| COC[C@@]12C[C@@H](C(=O)NCc3cccc(Cl)c3F)N(C(=O)Cn3cc(C(C)=O)c4cccnc43)[C@@H]1C2 [Example 490, (1R,3S,5S)-2-[2-(3-Acetyl-pyrrolo[2,3-b]pyridin-1-yl)-acetyl]-5-methoxymethyl-2-aza-bicyclo[3.1.0]hexane-3-carboxylic acid 3-chloro-2-fluoro-benzylamide] | 214 nM |  |
| COc1ccc2c(c1)c(NC(=O)N1C3CC3C[C@H]1C(=O)NCc1cccc(Cl)c1F)cn2C(N)=O (stereo partly drawn) [Example 300, (1R,3S,5R)-2-Aza-bicyclo[3.1.0]hexane-2,3-dicarboxylic acid 2-[(1-carbamoyl-5-methoxy-1H-indol-3-yl)-amide] 3-(3-chloro-2-fluoro-benzylamide)] | 4 nM |  |
| Cc1cc2c(C(N)=O)nn(CC(=O)N3[C@@H]4C[C@@H]4C[C@H]3C(=O)Nc3cccc(Br)c3F)c2cn1 [Example 670, 1-{2-[(1R,3S,5R)-3-(3-Bromo-2-fluoro-phenylcarbamoyl)-2-aza-bicyclo[3.l.0]hex-2-yl]-2-oxo-ethyl}-5-methyl-1H-pyrazolo[3,4-c]pyridine-3-carboxylic acid amide] | 90 nM |  |
| NC(=O)n1cc(NC(=O)N2C[C@@H](N)C[C@H]2C(=O)Nc2cccc(OC(F)(F)F)c2)c2ccc(OCc3ccccc3)cc21 [Example 398, (2S,4S)-4-Amino-pyrrolidine-1,2-dicarboxylic acid 1-[(6-benzyloxy-1-carbamoyl-1H-indol-3-yl)-amide]2-[(3-trifluoromethoxy-phenyl)-amide]] | 3050 nM |  |
| NC[C@@]1(F)C[C@@H](C(=O)NCc2c(F)ccc(Cl)c2F)N(C(=O)Nc2cn(C(N)=O)c3ccccc23)C1 [Example 411, (2S,4S)-4-aminomethyl-4-fluoro-pyrrolidine-1,2-dicarboxylic acid 1-[(1-carbamoyl-1H-indol-3-yl)-amide]2-(3-chloro-2,6-difluoro-benzylamide)] | 26 nM |  |
